Values joined by “and” are separate entries in the source; they are usually repeats but may differ in a detail not shown here. Equal values may be shown once. Read-outs that look alike come from different tables or passages of the source. Values belong to the molecule of their own block, whether it stands above or below them.
Experiments:
R329A nvTRPM2 = R329A nvTRPM2 (Nematostella vectensis, UniProt A7T1N0, R329A); test: Inside-out patch-clamp, R329A nvTRPM2; type: cell-based
nvTRPM2 = nvTRPM2 (Nematostella vectensis, UniProt A7T1N0); test: Inside-out patch-clamp, full-length; type: cell-based; settings: for Mode of action on nvTRPM2: compared with ADPR; for Maximal fractional activation: relative to current in 100 µM ADPR
hsTRPM2 = settings: cited from earlier work
T307A nvTRPM2 = T307A nvTRPM2 (Nematostella vectensis, UniProt A7T1N0, T307A); test: Inside-out patch-clamp, T307A nvTRPM2; type: cell-based
Y264A nvTRPM2 = Y264A nvTRPM2 (Nematostella vectensis, UniProt A7T1N0, Y264A); test: Inside-out patch-clamp, Y264A nvTRPM2; type: cell-based
T143A nvTRPM2 = T143A nvTRPM2 (Nematostella vectensis, UniProt A7T1N0, T143A); test: Inside-out patch-clamp, T143A nvTRPM2; type: cell-based
R271A nvTRPM2 = R271A nvTRPM2 (Nematostella vectensis, UniProt A7T1N0, R271A); test: Inside-out patch-clamp, R271A nvTRPM2; type: cell-based
T179A nvTRPM2 = T179A nvTRPM2 (Nematostella vectensis, UniProt A7T1N0, T179A); test: Inside-out patch-clamp, T179A nvTRPM2; type: cell-based
[1] = full-length nvTRPM2, 125 µM Ca2+
[2] = read-out: EC50 for nvTRPM2 channel activation, full-length nvTRPM2, 125 µM cytosolic Ca2+, Hill fit, −20 mV
[3] = read-out: EC50 for channel activation, 125 µM Ca2+ + 2.5 µM PIP2
[4] = read-out: EC50 for channel activation by Ca2+ (fractional Po), saturating ADPRP (1,000 µM) + 2.5 µM PIP2
[5] = saturating ADPRP (1,000 µM) + 2.5 µM PIP2
[6] = read-out: EC50 for channel activation by Ca2+ (fractional Po), saturating ADPRP (100 µM) + 2.5 µM PIP2
[7] = saturating ADPRP (100 µM) + 2.5 µM PIP2
[8] = 2.5 and 25 µM PIP2, 125 µM Ca2+ + 3.2 mM ADPR
[9] = 25 µM PIP2, 125 µM Ca2+ + 3.2 mM ADPR

Sequence of R329A nvTRPM2 (A7T1N0 whole entry R329A): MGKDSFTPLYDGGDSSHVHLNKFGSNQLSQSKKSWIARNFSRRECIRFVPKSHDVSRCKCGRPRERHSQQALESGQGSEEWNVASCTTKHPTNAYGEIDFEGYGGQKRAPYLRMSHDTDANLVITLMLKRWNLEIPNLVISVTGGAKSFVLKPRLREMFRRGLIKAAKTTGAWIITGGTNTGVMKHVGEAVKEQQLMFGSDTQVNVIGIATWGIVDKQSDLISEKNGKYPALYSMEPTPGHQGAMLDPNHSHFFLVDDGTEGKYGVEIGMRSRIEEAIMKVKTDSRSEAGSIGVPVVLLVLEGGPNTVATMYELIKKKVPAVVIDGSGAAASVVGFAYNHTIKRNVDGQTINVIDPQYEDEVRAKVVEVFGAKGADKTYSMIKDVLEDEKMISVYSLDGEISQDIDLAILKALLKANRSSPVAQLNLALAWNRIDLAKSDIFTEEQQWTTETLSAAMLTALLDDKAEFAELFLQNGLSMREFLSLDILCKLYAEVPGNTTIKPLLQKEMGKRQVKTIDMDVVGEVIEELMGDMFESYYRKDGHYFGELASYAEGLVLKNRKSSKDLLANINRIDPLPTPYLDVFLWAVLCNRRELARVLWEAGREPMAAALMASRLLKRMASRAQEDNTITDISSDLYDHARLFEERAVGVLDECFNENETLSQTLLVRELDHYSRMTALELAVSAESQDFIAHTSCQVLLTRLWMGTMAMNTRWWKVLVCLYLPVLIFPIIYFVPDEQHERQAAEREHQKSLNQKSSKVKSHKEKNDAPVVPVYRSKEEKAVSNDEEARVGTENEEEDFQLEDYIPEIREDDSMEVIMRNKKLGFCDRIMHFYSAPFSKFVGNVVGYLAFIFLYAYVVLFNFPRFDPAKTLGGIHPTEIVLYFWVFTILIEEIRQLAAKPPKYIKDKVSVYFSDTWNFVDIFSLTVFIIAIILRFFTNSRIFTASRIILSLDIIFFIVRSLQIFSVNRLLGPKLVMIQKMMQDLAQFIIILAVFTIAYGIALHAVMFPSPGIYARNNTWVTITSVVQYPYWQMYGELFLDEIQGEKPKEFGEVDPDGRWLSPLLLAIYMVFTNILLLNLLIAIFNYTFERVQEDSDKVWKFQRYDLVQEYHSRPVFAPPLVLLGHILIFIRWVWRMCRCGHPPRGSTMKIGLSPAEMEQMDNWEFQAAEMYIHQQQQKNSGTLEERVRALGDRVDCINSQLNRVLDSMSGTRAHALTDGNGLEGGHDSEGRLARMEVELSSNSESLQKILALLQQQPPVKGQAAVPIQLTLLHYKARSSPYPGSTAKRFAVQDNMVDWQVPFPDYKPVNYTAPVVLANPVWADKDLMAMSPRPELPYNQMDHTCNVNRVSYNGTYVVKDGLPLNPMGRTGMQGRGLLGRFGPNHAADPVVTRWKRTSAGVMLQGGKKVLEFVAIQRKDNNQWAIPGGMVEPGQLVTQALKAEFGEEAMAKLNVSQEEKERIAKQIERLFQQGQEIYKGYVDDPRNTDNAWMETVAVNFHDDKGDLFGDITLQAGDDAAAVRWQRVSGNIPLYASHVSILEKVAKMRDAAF
Sequence of T307A nvTRPM2 (A7T1N0 whole entry T307A): as the sequence (A7T1N0 whole entry R329A) above, with T307A, A329R counted along it
Sequence of nvTRPM2 (A7T1N0 whole entry): as the sequence (A7T1N0 whole entry R329A) above, with A329R counted along it
Sequence of T143A nvTRPM2 (A7T1N0 whole entry T143A): as the sequence (A7T1N0 whole entry R329A) above, with T143A, A329R counted along it
Sequence of R271A nvTRPM2 (A7T1N0 whole entry R271A): as the sequence (A7T1N0 whole entry R329A) above, with R271A, A329R counted along it
Sequence of T179A nvTRPM2 (A7T1N0 whole entry T179A): as the sequence (A7T1N0 whole entry R329A) above, with T179A, A329R counted along it
Sequence of Y264A nvTRPM2 (A7T1N0 whole entry Y264A): as the sequence (A7T1N0 whole entry R329A) above, with Y264A, A329R counted along it

- Hill coefficient nH for channel activation (R329A nvTRPM2; 125 µM Ca2+ + 2.5 µM PIP2): 2.1 ± 0.2
- Mode of action on nvTRPM2 (nvTRPM2; 125 µM Ca2+): full agonist
- Potency for activating WT nvTRPM2 relative to ADPR (nvTRPM2; EC50 ratio versus ADPR): approximately fivefold
- Hill coefficient nH for channel activation (nvTRPM2; WT nvTRPM2, 125 µM Ca2+ + 2.5 µM PIP2): 1.8 ± 0.2
- Hill coefficient nH for channel activation (nvTRPM2; [1]): 2.1 ± 0.4
- EC50 (nvTRPM2; read-out: EC50 for channel activation, WT nvTRPM2, 125 µM Ca2+ + 2.5 µM PIP2): 310 ± 20 nM
- EC50 (nvTRPM2; [2]): ~400 nM
- Maximal fractional activation (nvTRPM2; 125 µM Ca2+): 1.06 ± 0.03
- Hill coefficient nH for channel activation (T307A nvTRPM2; 125 µM Ca2+ + 2.5 µM PIP2): 1.6 ± 0.2
- EC50 (T307A nvTRPM2; [3]): 12000 ± 1000 nM
- Hill coefficient nH for channel activation (Y264A nvTRPM2; 125 µM Ca2+ + 2.5 µM PIP2): 1.8 ± 0.3
- Hill coefficient nH for channel activation (T143A nvTRPM2; 125 µM Ca2+ + 2.5 µM PIP2): 1.8 ± 0.1
- EC50 (T143A nvTRPM2; [3]): 1500 ± 100 nM
- Hill coefficient nH for channel activation (R271A nvTRPM2; 125 µM Ca2+ + 2.5 µM PIP2): 1.7 ± 0.2
- EC50 (R271A nvTRPM2; [3]): 89 ± 5 nM
- Hill coefficient nH for channel activation (T179A nvTRPM2; 125 µM Ca2+ + 2.5 µM PIP2): 1.4 ± 0.2
- EC50 (T179A nvTRPM2; [3]): 3900 ± 500 nM
Structure (SMILES): Nc1ncnc2c1ncn2[C@@H]1O[C@H](COP(=O)(O)OP(=O)(O)OC[C@H]2O[C@@H](O)C(O)[C@H]2O)C(O)[C@@H]1OP(=O)(O)O (some centres unmarked) [ADPRP, ADPR-2′-phosphate]
- EC50 (hsTRPM2; read-out: EC50 for hsTRPM2, activation, inside-out patches, saturating cytosolic Ca2+, ref Tóth et al., 2015): 13000 ± 1000 nM
- Mode of action on hsTRPM2 (hsTRPM2; ref Tóth et al., 2015): low-affinity partial agonist

- EC50 (R329A nvTRPM2; [4]): 1100 ± 40 nM
- Hill coefficient nH for activation by Ca2+ (R329A nvTRPM2; [5]): 2.0 ± 0.2
- Hill coefficient nH for activation by Ca2+ (nvTRPM2; WT, saturating ADPRP (10 µM) + 2.5 µM PIP2): 1.7 ± 0.2
- EC50 (T307A nvTRPM2; [4]): 930 ± 50 nM
- Hill coefficient nH for activation by Ca2+ (T307A nvTRPM2; [5]): 1.9 ± 0.2
- EC50 (Y264A nvTRPM2; [4]): 2000 ± 100 nM
- Hill coefficient nH for activation by Ca2+ (Y264A nvTRPM2; [5]): 1.8 ± 0.1
- EC50 (T143A nvTRPM2; [6]): 640 ± 20 nM
- Hill coefficient nH for activation by Ca2+ (T143A nvTRPM2; [7]): 2.3 ± 0.2
- EC50 (R271A nvTRPM2; read-out: EC50 for channel activation by Ca2+ (fractional Po), saturating ADPRP (10 µM) + 2.5 µM PIP2): 1680 ± 40 nM
- Hill coefficient nH for activation by Ca2+ (R271A nvTRPM2; saturating ADPRP (10 µM) + 2.5 µM PIP2): 3.0 ± 0.2
- EC50 (T179A nvTRPM2; [6]): 1800 ± 100 nM
- Hill coefficient nH for activation by Ca2+ (T179A nvTRPM2; [7]): 2.3 ± 0.1
Structure (SMILES): [Ca+2] [Ca^2+]

- Stimulation of macroscopic current by exogenous PIP2 (nvTRPM2; WT, 125 µM Ca2+ + 3.2 mM ADPR): only marginal additional stimulation
- Stimulation of macroscopic current by exogenous PIP2 (T307A nvTRPM2; [8]): small fractional stimulation
- Stimulation of macroscopic current by exogenous PIP2 (Y264A nvTRPM2; [9]): ~40 fold
- Stimulation of macroscopic current by exogenous PIP2 (T143A nvTRPM2; [8]): small fractional stimulation
- Stimulation of macroscopic current by exogenous PIP2 (R271A nvTRPM2; [9]): approximately twofold
- Stimulation of macroscopic current by exogenous PIP2 (T179A nvTRPM2; [9]): ~80 fold
Structure (SMILES): CCCCCCCC(=O)OC[C@H](COP(=O)(O)O[C@@H]1[C@H](O)[C@H](O)[C@@H](OP(=O)(O)O)[C@H](OP(=O)(O)O)[C@H]1O)OC(=O)CCCCCCC [PIP2, phosphatydyl-inositol-4-5-bisphosphate]

- Mode of action on nvTRPM2 (nvTRPM2; 125 µM Ca2+): similarly efficacious and potent as ADPR
- Hill coefficient nH for channel activation (nvTRPM2; [1]): 1.3 ± 0.2
- EC50 (nvTRPM2; [2]): ~2700 nM and 2700 nM
- Maximal fractional activation (nvTRPM2; 125 µM Ca2+): 1.1 ± 0.04
Structure (SMILES): Nc1ncnc2c1ncn2[C@H]1C[C@H](O)[C@@H](COP(=O)(O)OP(=O)(O)OC[C@H]2OC(O)[C@H](O)[C@@H]2O)O1 (some centres unmarked) [dADPR, 2′-deoxy-ADPR]
- Mode of action on hsTRPM2 (hsTRPM2; larger maximal whole-cell currents compared with ADPR, ref Fliegert et al., 2017): super-agonist

- Mode of action on nvTRPM2 (nvTRPM2; 125 µM Ca2+): low-affinity antagonist
- Current induced by the analogue alone (nvTRPM2; 200 µM, 125 µM cytosolic Ca2+): only tiny currents
- Reduction of currents elicited by 3.2 µM ADPR (nvTRPM2; coapplication of 200 µM ε-ADPR, 125 µM Ca2+): ~25%
Structure (SMILES): O=P(O)(OC[C@H]1OC(O)[C@H](O)[C@@H]1O)OP(=O)(O)OC[C@H]1O[C@@H](n2cnc3c2ncn2ccnc32)[C@H](O)[C@@H]1O (some centres unmarked) [ε-ADPR, 1,N^6-ethenoadenosine-5′-O-diphosphoribose]
- Mode of action on hsTRPM2 (hsTRPM2; ref Iordanov et al., 2016): low-affinity antagonist
